According to patent US20260285850A1, “SUBSTITUTED OXAZOLIDINONES AND IMIDAZOLINONES AS HERBICIDES” (FMC CORPORATION, priority 2023, published 2026):

Tests used:
Type in all cases: in vivo
[1] = tested on: ragweed (common ragweed, Ambrosia artemisiifolia); assay: Test A preemergence soil spray, visual injury rating 0-100; details: 0 to 100 scale, 10 days
Outline: (§1)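 Greenhouse test: loam/sand pots received a surfactant-containing formulation, as a preemergence directed soil spray or a postemergence spray on young plants. Injury was judged visually at day 10 relative to untreated controls.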

[2] = tested on: palmer (palmer amaranth, palmer pigweed, Amaranthus palmeri); assay: as above; details: 0 to 100 scale, 10 days
Outline: as §1

[3] = tested on: kochia (Bassia scoparia); assay: as above; details: 0 to 100 scale, 10 days
Outline: as §1

[4] = tested on: barnyardgrass (Echinochloa crus-galli); assay: as above; details: 0 to 100 scale, 10 days
Outline: as §1

[5] = tested on: ryegrass, Italian (italian ryegrass, Lolium multiflorum); assay: as above; details: 0 to 100 scale, 10 days
Outline: as §1

[6] = tested on: corn (Zea mays); assay: as above; details: 0 to 100 scale, 10 days
Outline: as §1

[7] = tested on: wheat (Triticum aestivum); assay: as above; details: 0 to 100 scale, 10 days
Outline: as §1

[8] = tested on: soybean (Glycine max); assay: as above; details: 0 to 100 scale, 10 days
Outline: as §1

[9] = tested on: green foxtail (Setaria viridis); assay: as above; details: 0 to 100 scale, 10 days
Outline: as §1

[10] = tested on: oat, wild (wild oat, Avena fatua); assay: as above; details: 0 to 100 scale, 10 days
Outline: as §1

[11] = tested on: blackgrass (Alopecurus myosuroides); assay: as above; details: 0 to 100 scale, 10 days
Outline: as §1

[12] = tested on: rice (Oryza sativa); assay: Test B flooded paddy test, visual plant response rating 0-100; details: 250 g ai/ha, Flood, applied to paddy water, evaluated after 13 days
Outline: (§2)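 Compounds applied to standing paddy water (3 cm above soil, maintained for the test duration) on 2-leaf-stage plants; visual rating vs controls at 13 days, greenhouse.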

[13] = tested on: ducksalad (Heteranthera limosa); assay: as above; details: 250 g ai/ha, Flood, applied to paddy water, evaluated after 13 days
Outline: as §2

[14] = tested on: barnyardgrass (Echinochloa crusgalli); assay: as above; details: 250 g ai/ha, Flood, applied to paddy water, evaluated after 13 days
Outline: as §2

[15] = tested on: sedge, umbrella (small-flower umbrella sedge, Cyperus difformis); assay: as above; details: 250 g ai/ha, Flood, applied to paddy water, evaluated after 13 days
Outline: as §2

[16] = tested on: ragweed (common ragweed, Ambrosia artemisiifolia); assay: Test A postemergence application, visual injury rating 0-100; details: Postemergence
Outline: as §1

[17] = tested on: palmer (palmer amaranth, palmer pigweed, Amaranthus palmeri); assay: as above; details: Postemergence
Outline: as §1

[18] = tested on: kochia (Bassia scoparia); assay: as above; details: Postemergence
Outline: as §1

[19] = tested on: barnyardgrass (Echinochloa crus-galli); assay: as above; details: Postemergence
Outline: as §1

[20] = tested on: ryegrass, Italian (italian ryegrass, Lolium multiflorum); assay: as above; details: Postemergence
Outline: as §1

[21] = tested on: corn (Zea mays); assay: as above; details: Postemergence
Outline: as §1

[22] = tested on: wheat (Triticum aestivum); assay: as above; details: Postemergence
Outline: as §1

[23] = tested on: soybean (Glycine max); assay: as above; details: Postemergence
Outline: as §1

[24] = tested on: horseweed (Erigeron canadensis); assay: as above; details: Postemergence
Outline: as §1

[25] = tested on: green foxtail (Setaria viridis); assay: as above; details: Postemergence
Outline: as §1

[26] = tested on: oat, wild (wild oat, Avena fatua); assay: as above; details: Postemergence
Outline: as §1

[27] = tested on: galium (catchweed bedstraw, Galium aparine); assay: as above; details: Postemergence
Outline: as §1

[28] = tested on: blackgrass (Alopecurus myosuroides); assay: as above; details: Postemergence
Outline: as §1

[29] = 8 g ai/ha, 10 days, 0 is no effect, 100 is complete control
[30] = 31 g ai/ha, greenhouse 10 days, 0 no effect, 100 complete control

## CC1(C(=O)NC2C=CC(C(=O)NS(=O)(=O)c3ccccc3)C2)CN(c2cc(F)cc(F)c2)C(=O)O1 (stereo not shown) [Compound 88]
[1]; 8 g ai/ha
  Ragweed plant response rating: 0
[1]; 31 g ai/ha
  Ragweed plant response rating: 40
[2]; 8 g ai/ha
  Pigweed, Palmer plant response rating: 50
[2]; 31 g ai/ha
  Amaranth, Palmer (Pigweed, Palmer) plant response rating: 80
[3]; 8 g ai/ha
  Kochia plant response rating: 0
[3]; 31 g ai/ha
  Kochia plant response rating: 60
[4]; 8 g ai/ha
  Barnyardgrass plant response rating: 10
[4]; 31 g ai/ha
  Barnyardgrass plant response rating: 40
[5]; 8 g ai/ha
  Ryegrass, Italian plant response rating: 10
[5]; 31 g ai/ha
  Ryegrass, Italian plant response rating: 50
[6]; 8 g ai/ha
  Corn plant response rating: 0
[6]; 31 g ai/ha
  Corn plant response rating: 0
[7]; 8 g ai/ha
  Wheat plant response rating: 0
[7]; 31 g ai/ha
  Wheat plant response rating: 10
[8]; 8 g ai/ha
  Soybean plant response rating: 0
[8]; 31 g ai/ha
  Soybean plant response rating: 0
[9]; 8 g ai/ha
  Foxtail, Green plant response rating: 20
[9]; 31 g ai/ha
  Foxtail, Green plant response rating: 30
[10]; 8 g ai/ha
  Oat, Wild plant response rating: 0
[10]; 31 g ai/ha
  Oat, Wild plant response rating: 0
[11]; 8 g ai/ha
  Blackgrass plant response rating: 0
[11]; 31 g ai/ha
  Blackgrass plant response rating: 30
[12]
  Plant response rating, Rice (0 to 100 scale, 0 is no effect and 100 is complete control): 25
[13]
  Plant response rating, Ducksalad (0 to 100 scale, 0 is no effect and 100 is complete control): 70
[14]
  Plant response rating, Barnyardgrass (0 to 100 scale, 0 is no effect and 100 is complete control): 15
[15]
  Plant response rating, Sedge, Umbrella (0 to 100 scale, 0 is no effect and 100 is complete control): 80
[16]; [29]
  Ragweed plant response rating (0 to 100 scale): 50
[16]; [30]
  Ragweed plant response rating (0 to 100 scale): 60
[17]; [29]
  Pigweed, Palmer plant response rating (0 to 100 scale): 40
[17]; [30]
  Amaranth, Palmer / Pigweed, Palmer plant response rating (0 to 100 scale): 90
[18]; [29]
  Kochia plant response rating (0 to 100 scale): 30
[18]; [30]
  Kochia plant response rating (0 to 100 scale): 80
[19]; [29]
  Barnyardgrass plant response rating (0 to 100 scale): 10
[19]; [30]
  Barnyardgrass plant response rating (0 to 100 scale): 100
[20]; [29]
  Ryegrass, Italian plant response rating (0 to 100 scale): 0
[20]; [30]
  Ryegrass, Italian plant response rating (0 to 100 scale): 50
[21]; [29]
  Corn plant response rating (0 to 100 scale): 40
[21]; [30]
  Corn plant response rating (0 to 100 scale): 90
[22]; [29]
  Wheat plant response rating (0 to 100 scale): 20
[22]; [30]
  Wheat plant response rating (0 to 100 scale): 40
[23]; [29]
  Soybean plant response rating (0 to 100 scale): 0
[23]; [30]
  Soybean plant response rating (0 to 100 scale): 50
[24]; [29]
  Horseweed plant response rating (0 to 100 scale): 0
[24]; [30]
  Horseweed plant response rating (0 to 100 scale): 50
[25]; [29]
  Foxtail, Green plant response rating (0 to 100 scale): 0
[25]; [30]
  Foxtail, Green plant response rating (0 to 100 scale): 50
[26]; [29]
  Oat, Wild plant response rating (0 to 100 scale): 20
[26]; [30]
  Oat, Wild plant response rating (0 to 100 scale): 90
[27]; [29]
  Galium plant response rating (0 to 100 scale): 30
[27]; [30]
  Galium plant response rating (0 to 100 scale): 70
[28]; [29]
  Blackgrass plant response rating (0 to 100 scale): 0
[28]; [30]
  Blackgrass plant response rating (0 to 100 scale): 50
